Reference: patent US20030211941A1, “Methods for identifying signalling molecules” (priority 2002, published 2003)
pEC50: −log10 of the molar value. Non-standard residues stand in square brackets, D forms with d. Hyp = O=C(O)[C@@H]1C[C@@H](O)CN1

Tests used:
[1] = tested on: tobacco proteinase inhibitor protein; assay: Proteinase inhibitor inducing assay (tobacco leaves; supplied to young tobacco plants through cut stems); type: in vivo; conditions: for Induction of tobacco proteinase inhibitor protein (in words): tobacco plants; for Concentrations for 1/2 maximal activity in Proteinase Inhibitor Inducing Assays (Tobacco Leaves): young tobacco plants, supplied through cut stems
Description: The purified polypeptides were sequenced and named tobacco systemin I (peak I activity) (SEQ ID NO: 1) and tobacco systemin II (peak II activity) (SEQ ID NO: 2). Both are polypeptides of 18 amino acids and both are glycosylated. Using mild acid hydrolysis, the carbohydrates were removed, and the masses of both tobacco systemin I (SEQ ID NO: 1) and tobacco systemin II (SEQ ID NO: 2) were analyzed before and after acid hydrolysis using a MALDI-MS. The amino acid sequence of tobacco systemin I is NH2-RGANLPXXSXASSXXSKE-COO. (SEQ ID NO:1). The amino acid sequence of tobacco systemin II is NH2-NRKPLSXXSXKPADGQRP-COO (SEQ ID NO:2). The one letter abbreviation “X” represents hydroxyproline. The masses after acid hydrolysis exactly matched the masses obtained by sequence analysis. […] The potency of the tobacco systemins was similar to that found for tomato systemin (disclosed in U.S. Pat. No. 5,378,819) in its alkalinization response in tomato cell suspension cultures and in inducing proteinase inhibitors in leaves of excised tomato plants (Table 1).

[2] = tested on: tobacco suspension cell cultures; assay: Alkalinization assay (tobacco cell suspension cultures); type: cell-based, N. tabacum; conditions: for pEC50: 2 ml tobacco suspension cells, read-out: Concentrations for 1/2 maximal activity in Alkalinization Assays (Tobacco Cell Suspension Cultures); for Alkalinization of tobacco suspension cell cultures (in words): tobacco suspension cells
Description: Column fractions were assayed using suspension-cultured tobacco cells as follows. An aliquot of cells (usually 1 to 2 ml) were placed in the wells of culture plates, then aliquots from each column fraction (1 to 10 μL) were placed in each well of the culture plates. The cells in the plates were agitated by a circular motion of the rotary shaker on which they sat. The pH was then monitored over time and the change in pH at various times was plotted versus fraction number.
The two active peaks were solubilized in 1 ml 0.1% TFA each and injected into a narrow bore reversed-phase C18 column (Vydac, Column 218TP52, 2.1 by 250 mm, 5 μm beads, 300 angstrom pores). Solvent A consisted of 0.1% TFA in water, and solvent B was 0.05% TFA in methanol. Samples were injected in solvent A, and after 2 minutes, a 90 minute gradient from 0% solvent B to 30% solvent B was applied. The flow rate was 0.25 ml/min and the fractions (0.25 ml) were monitored at 214 nm and 2 μl were assayed for their alkalinization activity in tobacco cell cultures. The elution and alkalinization profiles for peak I activity are shown in FIG. 3A and FIG. 3B, respectively. The elution and alkalinization profile for peak II activity are shown in FIG. 4A and FIG. 4B, respectively.
The cells can be maintained in 125 mL Ehrlenmeyer flasks on an orbital shaker (160 rpm) under constant light. Three milliliters of cells are subcultured every seven days into 45 mL of sterile media (unbuffered, pH 5.5 adjusted with 0.1 M KOH) containing 3% sucrose, 4.3 g/L Murashige and Skoog salt mixture, 5 mg/L 1-napthylacetic acid, 2 mg/L 6-benzylaminopurine, 110 mg/L Nitsch and Nitsch vitamin powder, 1 mg/L thiamine, 100 mg/L myo-inositol and 1 mM EDTA. Cells can be used for alkalinization assays from 4 to 8 days after subculturing.

[3] = tested on: MAP kinase protein; assay: MAP kinase assay in tobacco leaf extracts; type: biochemical
Excerpt: The ability of tobacco systemin I (SEQ ID NO: 1), tobacco systemin II (SEQ ID NO: 2) and the 5 kDa polypeptide, described in Example 2 herein, to stimulate the phosphorylation of a MAP kinase protein in tobacco leaf extracts was investigated. The MAP kinase assay utilized was essentially as described in Stratmann, J. W. and Ryan, C. A., Proc. Nat'l. Acad. Sci. U.S.A. 94:11085-11089 (1997), which publication is incorporated herein by reference.

Induction of tobacco proteinase inhibitor protein (in words) [1] | Concentrations for 1/2 maximal activity in Proteinase Inhibitor Inducing Assays (Tobacco Leaves) [1] | pEC50 [2] | MAP kinase stimulating activity (in words) [3] | Substance | Alkalinization of tobacco suspension cell cultures (in words) [2]
active at low picomole levels | ˜200 fmol/plant | ~9.60 |  | 18 amino acid glycosylated polypeptide from tobacco, NH2-RGANLPXXSXASSXXSKE-COO (X = hydroxyproline), 9 pentose units (H-RGANLP[Hyp][Hyp]S[Hyp]ASS[Hyp][Hyp]SKE-OH; also: 9 pentose units glycosylation, places not given here) [Tob Sys I, tobacco systemin I] | active at low picomole levels
 |  |  |  | tomato systemin (AVQSKPPSKRDPPKMQTD; Systemin; UniProt P27058 179-196, looked up) [tomato systemin disclosed in U.S. Pat. No. 5,378,819, reference compound] | does not cause alkalinization
active at low picomole levels | ˜200 fmol/plant | ~9.60 | possess MAP kinase stimulating activity | 18 amino acid glycosylated polypeptide from tobacco, NH2-NRKPLSXXSXKPADGQRP-COO (X = hydroxyproline), 6 pentose units (H-NRKPLS[Hyp][Hyp]S[Hyp]KPADGQRP-OH; also: 6 pentose units glycosylation, places not given here) [Tob Sys II, tobacco systemin II] | active at low picomole levels
